Data reported in patent US9060989B2, “Method for treating or relieving inflammatory bowel disease” (INDUSTRIAL TECHNOLOGY RESEARCH INSTITUTE, priority 2010, dated 2015).

System: enteritis induced by trinitrobenzene sulfonic acid (TNBS)
Experiment: Improvement of bowel swelling and mushy or watery feces in TNBS-induced enteritis
Type: in vivo
Conditions: TNBS-induced enteritis mice, oral; extracts 100 mg/kg (B. krylovianum also 1000 mg/kg), 5-ASA 200 mg/kg; 6 cm bowel from the anus observed
Source text: The animal model of enteritis for test is from an induction by trinitrobenzene sulfonic acid (TNBS) (Current Protocols in Immunology (2001) 15.19.1-15.19.14; Lahat G, Halperin D, Fabian I, et al. Immunomodulatory Effects of Ciprofloxacin in TNBS-Induced Colitis in Mice. Inflamm Bowel Dis 2007;13:557-565; ten Hove T, van den Blink B, Pronk I, et al. Dichotomal role of inhibition of p38 MAPK with SB 203580 in experimental colitis. Gut 2002; 50:507-512; and Bouma G, Strober W. The Immunological and Genetic Basis of Inflammatory Bowel Disease. Nature Review Immunology 2003; 3: 521-533). The bowel in the animal model of enteritis has swelled and the feces therein show a mushy or watery appearance instead of a normal semi-solid type appearance.
Specifically, BABL/cAnNCrlBltw mice, purchased from BioLASCO Taiwan (Bltw) were grouped into four groups having 6 mice to a group. In three of the groups, each mouse was injected with 1.75 mg of trinitrobenzene sulfonic acid (TNBS) (Sigma) at a 4 cm depth of the bowel from the anus. After 48 hours, the injected location was induced to form enteritis. Mice in another group were injected with a 50% ethanol aqueous solution without TNBS at a 4 cm depth of the bowel from the anus as a negative control (A). The location injected ethanol aqueous solution without TNBS was not induced to form enteritis. […]

## Nc1ccc(O)c(C(=O)O)c1 [5-ASA, 5-aminosalicylic acid]
  bowel swelling: not alleviated or eliminated
